Experimental data published in US9751919B2, “Antimicrobial compositions comprising a hyaluronic acid binding peptide and a β-lactam antibiotic” (priority 2012, dated 2017).
Where “and” joins values, the source holds several entries; their conditions need not be identical. Equal entries are not always repeated.

How the values were obtained:
[1] = tested on: S. pneumoniae; assay: Checkerboard assay (FIC index); format: cell-based, Streptococcus pneumoniae; conditions: antibiotic combined with PEP35;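 note: each agent diluted from 0.03 to 4 times its MIC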
Experimental: (§1) The checkerboard assays were carried out as described by Eliopoulos and Moellering (Chapter 9) in Antibiotic in Laboratory Medicine, Lorian Ed. 1996 as well as Bonapace et al. Diagnostic Microbiology and Infectious Diseases 2002; 44:363-366 and Bonapace et al. Diagnostic Microbiology and Infectious Diseases 2000; 38:43-50. In brief, checkerboard assays were performed in 96 well microtitre trays using an 8-by-8 well configuration. […] 96-well custom designed microtitre plates contained 100 ul/well of cation adjusted Mueller-Hinton broth (eg. for Enterobacteriaceae) with or without lysed horse blood (2-5% V/V) [eg. for S. pneumoniae] and were inoculated to achieve a final concentration of approximately 5×10^5 CFU/ml and incubated in ambient air for 24 hours prior to reading. Colony counts were performed periodically to confirm inocula. Quality control was performed every two weeks using a variety of ATCC QC organisms including; S. pneumoniae 49619, S. aureus 29213, E. faecalis 29212, E. coli 25922 and P. aeruginosa 27853. For all antimicrobials as well as PEP35, CLSI criteria was used.
(§2) The fractional inhibitory concentration index (FIC index) was used to interpret synergy, antagonism or additivity/indifference. FIC index=FIC of drug A+FIC of drug B where:
(§3) The FIC of drug A and drug B is calculated as follows, FIC drug A=MIC of drug A in combination/MIC of drug A alone and FIC of drug B=MIC of drug B in combination/MIC of drug B alone. Synergy is defined as FIC index ≦0.5, additivity/indifference FIC >0.5-4 and antagonism FIC index >4.
(§4) Antimicrobials used included PEP35, cefazolin, ceftriaxone, vancomycin, linezolid, tigecycline and daptomycin versus Gram-positive cocci and PEP35, gentamicin, levofloxacin, piperacillin/tazobactam, meropenem and colistin (Polymyxin E) versus Gram-negative bacilli. These agents were obtained as laboratory grade powders from their respective manufacturers. Stock solutions were prepared and dilutions made as described by the Clinical Laboratory Standards Institute (2005 CLSI).
(§5) Organisms included Gram-positive cocci (2 strains of each): Methicillin-susceptible Staphylococcus aureus (MSSA), community-associated (CA) and healthcare-associated (HA) methicillin-resistant Staphylococcus aureus (MRSA), vancomycin-intermediate Staphylococcus aureus (VISA), vancomycin-resistant Staphylococcus aureus (VRSA), methicillin-resistant Staphylococcus epidermidis (MRSE), Streptococcus pyogenes, Streptococcus agalactiae, Streptococcus pneumoniae, Enterococcus faecalis, Enterococcus faecium and vancomycin-resistant enterococcus (VRE). Gram-negative bacilli tested (2 strains of each) included: E. coli, Pseudomonas aeruginosa, Klebsiella pneumoniae, K. oxytoca, Enterobacter cloacae, P. mirabilis and Stenotrophomonas maltophilia. MIC testing, following two subcultures from frozen stock were determined by the CLSI 2005 approved broth microdilution method.

[2] = tested on: S. pyogenes; assay: Checkerboard assay (FIC index); format: cell-based, Streptococcus pyogenes; conditions: antibiotic combined with PEP35
Experimental: as §1, §2, §3, §4, §5

[3] = tested on: E. faecalis; assay: Checkerboard assay (FIC index); format: cell-based, Enterococcus faecalis; conditions: antibiotic combined with PEP35
Experimental: as §1, §2, §3, §4, §5

[4] = tested on: CA-MRSA; assay: MIC (CLSI broth dilution), agent alone; format: cell-based, Staphylococcus aureus; conditions: agent alone
Experimental: (§6) VISA (strains 92, 95 and 96), VRSA (strains 105 and 106) and E. coli (strain 69717) isolates were also tested. One MSSA was used as a control. All MICs were assessed using CLSI guidelines. Also assessed was the activity of cefazolin, ceftriazone, meropenem, and a piperacillin/tazobactam combination antibiotic. Minimum inhibitory concentration (MIC) is the lowest concentration of an antimicrobial that will inhibit the visible growth of a microorganism after incubation.
(§7) Antimicrobial Susceptibility Testing: A custom designed panel of antimicrobials was created. […] These agents were obtained as laboratory grade powders from their respective manufacturers. Stock solutions were prepared and dilutions made as described by the Clinical Laboratory Standards Institute (2005 CLSI). Following two subcultures from frozen stock the MICs of the antimicrobial agents for the isolates were determined by the CLSI 2005 approved broth macrodilution method. Briefly, test tubes containing doubling antibiotic dilutions (2 ml per tube) of cation adjusted Mueller-Hinton broth (eg. for Enterobacteriaceae) with or without lysed horse blood (2-5% V/V) [eg. for S. pneumoniae] were inoculated to achieve a final concentration of approximately 5×10^5 CFU/ml and incubated in ambient air for 24 hours prior to reading. Colony counts were performed periodically to confirm inocula. Quality control was performed every two weeks using a variety of ATCC QC organisms including; S. aureus 29213, E. faecalis 29212, E. coli 25922 and P. aeruginosa 27853.
(§8) One MSSA was used as a control. All MICs were assessed using CLSI guidelines.
(§9) One MS SA and ATCC reference strains were used as controls. All MICs were assessed using CLSI guidelines.

[5] = tested on: HA-MRSA; assay: MIC (CLSI broth dilution), agent alone; format: cell-based, Staphylococcus aureus; conditions: for MIC: agent alone; for PEP35 (MIC): peptide alone
Experimental: as §6, §7, §8, §9

[6] = tested on: VRSA; assay: MIC (CLSI broth dilution), agent alone; format: cell-based, Staphylococcus aureus; design: unit not given beside the values
Experimental: as §6
Antimicrobial Susceptibility Testing: A custom designed panel of antimicrobials was created. The panel included: PEP35, penicillin, piperacillin/tazobactam, cefazolin, ceftriaxone, meropenem, clarithromycin, clindamycin, gentamicin, amikacin, vancomycin, ciprofloxacin, levofloxacin, moxifloxacin, linezolid, trimethoprim/sulfamethoxazole and doxycycline. These agents were obtained as laboratory grade powders from their respective manufacturers. Stock solutions were prepared and dilutions made as described by the Clinical Laboratory Standards Institute (2005 CLSI). Following two subcultures from frozen stock the MICs of the antimicrobial agents for the isolates were determined by the CLSI 2005 approved broth macrodilution method. Briefly, test tubes containing doubling antibiotic dilutions (2 ml per tube) of cation adjusted Mueller-Hinton broth (eg. for Enterobacteriaceae) with or without lysed horse blood (2-5% V/V) [eg. for S. pneumoniae] were inoculated to achieve a final concentration of approximately 5×10^5 CFU/ml and incubated in ambient air for 24 hours prior to reading. Colony counts were performed periodically to confirm inocula. Quality control was performed every two weeks using a variety of ATCC QC organisms including; S. aureus 29213, E. faecalis 29212, E. coli 25922 and P. aeruginosa 27853. For all antimicrobials as well as PEP35, CLSI criteria were used.
as §8

[7] = tested on: MSSA; assay: MIC (CLSI broth dilution), agent alone; format: cell-based, Staphylococcus aureus; conditions: for MIC: agent alone
Experimental: as §6, §7, §8, §9

[8] = S. pneumoniae-Pen I 72302 (MHB)
[9] = S. pneumoniae-Pen I 78663 (MHB)
[10] = S. pneumoniae-Pen R 76065 (MHB)
[11] = S. pneumoniae-Pen R 78519 (MHB)
[12] = S. pneumoniae-Pen S 70400 (MHB)
[13] = S. pneumoniae-Pen S 71263 (MHB)
[14] = HA-MRSA 70798 (USA100/800), in µg/mL
[15] = CA-MRSA 69615 (USA400), in µg/mL
[16] = CA-MRSA 70857 (USA400), in µg/mL
[17] = HA-MRSA 77090 (USA100/800), in µg/mL

## CCCCCCCCCC(=O)N[C@@H](Cc1c[nH]c2ccccc12)C(=O)N[C@H](CC(N)=O)C(=O)N[C@@H](CC(=O)O)C(=O)N[C@@H]1C(=O)NCC(=O)N[C@@H](CCCN)C(=O)N[C@@H](CC(=O)O)C(=O)N[C@H](C)C(=O)N[C@@H](CC(=O)O)C(=O)NCC(=O)N[C@H](CO)C(=O)N[C@@H]([C@H](C)CC(=O)O)C(=O)N[C@@H](CC(=O)c2ccccc2N)C(=O)O[C@@H]1C [Daptomycin, daptomycin]
[1]; [8]
  Avg ΣFIC (range): 0.99 (0.62-1.25)
[1]; [9]
  Avg ΣFIC (range): 1.19 (1.03-1.5)
[1]; [10]
  Avg ΣFIC (range): 1.09 (0.56-1.5)
[1]; [11]
  Avg ΣFIC (range): 1.19 (1.03-1.5)
[1]; [12]
  Avg ΣFIC (range): 1.21 (1.03-1.5)
[1]; [13]
  Avg ΣFIC (range): 1.39 (1.03-2.5)
[2]; S. pyogenes 77765 (MHB)
  Avg ΣFIC (range): 1.19 (1.03-1.5)
[2]; S. pyogenes 79531 (MHB)
  Avg ΣFIC (range): 1.19 (1.03-1.5)
[3]; E. faecalis 70468
  Avg ΣFIC (range): 1.5 (1-2.25)
[3]; E. faecalis 78145
  Avg ΣFIC (range): 1.39 (1.03-2.25)

## CC(=O)NC[C@H]1CN(c2ccc(N3CCOCC3)c(F)c2)C(=O)O1 [Linezolid, linezolid]
[1]; [8]
  Avg ΣFIC (range): 0.86 (0.56-1.12)
[1]; [9]
  Avg ΣFIC (range): 1.05 (0.75-1.25)
[1]; [10]
  Avg ΣFIC (range): 0.74 (0.53-1.12)
[1]; [11]
  Avg ΣFIC (range): 0.92 (0.75-1.12)
[1]; [12]
  Avg ΣFIC (range): 0.63 (0.5-1.06)
[1]; [13]
  Avg ΣFIC (range): 0.92 (0.62-1.12)
[2]; S. pyogenes 77765 (MHB)
  Avg ΣFIC (range): 1.05 (0.75-1.25)
[2]; S. pyogenes 79531 (MHB)
  Avg ΣFIC (range): 1.19 (1.03-1.5)
[3]; E. faecalis 70468
  Avg ΣFIC (range): 0.99 (0.62-1.25)
[3]; E. faecalis 78145
  Avg ΣFIC (range): 0.88 (0.62-1.06)

## C[C@@H](O)[C@H]1C(=O)N2C(C(=O)O)=C(S[C@@H]3CN[C@H](C(=O)N(C)C)C3)[C@H](C)[C@H]12 [Meropenem]
[4]; CA-MRSA 70857 (USA400)
  MIC: 2 and 4/4
[5]; [14]
  MIC: 64
[5]; HA-MRSA 77098 (USA100/800)
  MIC: 64/64
[6]; VRSA 105, in µg/mL
  MIC: 32 and 16
[6]; VRSA 106
  MIC: 16 and 16/16

## CN(C)c1cc(NC(=O)CNC(C)(C)C)c(O)c2c1C[C@H]1C[C@H]3[C@H](N(C)C)C(O)=C(C(N)=O)C(=O)[C@@]3(O)C(O)=C1C2=O [Tigecycline, tigecycline]
[1]; [8]
  Avg ΣFIC (range): 0.68 (0.53-1.03)
[1]; [9]
  Avg ΣFIC (range): 1.0 (0.56-1.12)
[1]; [10]
  Avg ΣFIC (range): 0.91 (0.62-1.12)
[1]; [11]
  Avg ΣFIC (range): 0.98 (0.75-1.12)
[1]; [12]
  Avg ΣFIC (range): 0.91 (0.62-1.12)
[1]; [13]
  Avg ΣFIC (range): 0.92 (0.56-1.25)
[2]; S. pyogenes 77765 (MHB)
  Avg ΣFIC (range): 1.1 (1.0-1.25)
[2]; S. pyogenes 79531 (MHB)
  Avg ΣFIC (range): 1.1 (1.0-1.25)
[3]; E. faecalis 70468
  Avg ΣFIC (range): 0.82 (0.5-1.06)
[3]; E. faecalis 78145
  Avg ΣFIC (range): 0.9 (0.5-1.12)

## KKKKKLQLQLNLIKKKVQVSVVVVRRH (Reordered human peptide sequence) [Scrambled PEP35]
[4]; [15]
  MIC: 256
[4]; [16]
  MIC: 256
[5]; [14]
  MIC: 256
[5]; [17]
  MIC: 512
[7]; MSSA 79333, in µg/mL
  MIC: 64
[6]; VRSA 105, in µg/mL
  MIC: 64
[6]; VRSA 106, in µg/mL
  MIC: 128

## LKQKIKHVVKLKVVVKLRSQLVKRKQN (listed as Mus sp.) [PEP35]
[4]; [15]
  MIC: 512
[4]; CA-MRSA (CMRSA7/USA400/MW2) isolates, one per table line
  MIC: 512 µg/mL
[5]; [14]
  MIC: 512
[5]; [17]
  MIC: 256 and 512
[5]; HA-MRSA (CMRSA1/USA600)
  PEP35 (MIC): 256 µg/mL
[5]; HA-MRSA (CMRSA5/USA500)
  PEP35 (MIC): 512 µg/mL
[5]; HA-MRSA (CMRSA8)
  PEP35 (MIC): 1024 µg/mL
[7]; MSSA 79333, in µg/mL
  MIC: 128 and 256
[7]; S. aureus (printed without strain; control row), peptide alone
  PEP35 (MIC): 1024 µg/mL
[7]; S. aureus control
  MIC: 512 µg/mL
[6]; VRSA 105, in µg/mL
  MIC: 128 and 64
[6]; VRSA 106
  MIC: 128 and 128/128/128

## piperacillin/tazobactam
[4]; [15]
  MIC: 32
[4]; [16]
  MIC: 32
[5]; [14]
  MIC: 4
[5]; [17]
  MIC: 16
[7]; MSSA 79333
  MIC: ≦1
[6]; VRSA 105, in µg/mL
  MIC: 64
[6]; VRSA 106, in µg/mL
  MIC: 64
